The values below come from article PMC9745799, “Polymyxin Stereochemistry and Its Role in Antibacterial Activity and Outer Membrane Disruption” (ACS Infectious Diseases, 2022).

Positions of bridges follow the written chain, without caps; N, C: chain ends. Non-standard residues stand in square brackets, D forms with d. Residues, ends and D or L forms follow the SMILES beside them. dDab = NCC[C@@H](N)C(=O)O; Dab = NCC[C@H](N)C(=O)O Some results are limits rather than exact numbers.

Test [1] has as its system LPS from E. coli (O55:B5). The test is described as follows: Isothermal titration calorimetry (ITC), LPS binding. The following applies: compound (1 mM) into LPS (20 µM), 20 mM HEPES pH 7, 37 °C, mean and SD of three experiments; for ΔG, fitted parameter for single site binding / ΔH, fitted parameter for single site binding / Kd: one-site model; for Kd: read-out: KD, fitted parameter for single site binding. As to the method: Stock solutions of LPS (10 mg/mL, 0.5 mM) were prepared in 20 mM HEPES at pH 7 by suspension, sonication, and temperature cycling between 4 and 60 °C and stored overnight prior to use. LPS from E. coli (O55:B5) was used. Lipopeptide solutions (1 mM in 20 mM HEPES, pH 7) were titrated into a suspension of LPS (0.020 mM) in the same buffer. Control titrations included the titration of peptide into buffer and buffer into the LPS suspension to determine the corresponding heat of dilution. All binding experiments were performed using a MicroCal PEAQ-ITC Automated microcalorimeter (Malvern Panalytical Ltd., Malvern, UK). The samples were equilibrated to 37 °C prior to measurement. The titrations were conducted at 37 °C under constant stirring at 750 rpm. Each experiment consisted of an initial injection of 0.3 μL followed by 25 separate injections of 1.5 μL into the sample cell of 200 μL. The time between each injection was 180 s, and the measurements were performed with the reference power set at 5 μcal s^–1 and the feedback mode set at “low”. For all calculations performed, an estimated molecular weight of 20 kDa for LPS was applied. The calorimetric data thus obtained were analyzed using MicroCal PEAQ-ITC Analysis Software Version 1.20 (Malvern Panalytical Ltd., Malvern, UK), where the integrated heat signal is corrected for the heat of dilution of the titrant.
A general note: In ITC the heat of successive injections is recorded.

Test [2] concerns E. coli BW25113 (rough LPS). Put plainly: NPN uptake assay (outer membrane disruption). Particulars: NPN fluorescence after 1 h at RT, 5 mM HEPES pH 7.2 + 20 mM glucose, triplicates, result in words. The class given is cell-based. The protocol: (§1) Bacteria were taken from glycerol stocks and grown in TSB overnight. Cultures were diluted either 50 or 100 times in Lysogeny Broth (LB) and grown at 37 °C to an OD600 of 0.5. Test compounds were prepared in HEPES buffer (5 mM, pH 7.2 + 20 mM glucose) and serially diluted (25 μL per well) on 1/2 the area of black 96-well plates with a transparent bottom. N-Phenyl-1-naphthylamine (NPN) was dissolved in acetone (0.5 mM) and diluted to 40 μM in HEPES buffer (5 mM, pH 7.2 + 20 mM glucose). 25 μL of the NPN solution was added to each well. The bacterial suspension was spin down (1000g, 10 min), and the remaining cell pellet was resuspended in half the original volume of HEPES buffer (5 mM, pH 7.2 + 20 mM glucose). 50 μL of bacterial suspension was added to each well. NPN fluorescence was measured after 1 h of incubation at RT with λex 355 ± 20 nm and λem 420 ± 20 nm. The measured fluorescence signal was corrected for NPN fluorescence in the absence of compounds (bacteria in buffer + NPN) and presented as relative fluorescence units (RFUs).

Test [3] deals with E. coli ATCC 25922 (smooth LPS). The test is described as follows: NPN uptake assay (outer membrane disruption). The class given is cell-based. Particulars: NPN fluorescence after 1 h at RT, 5 mM HEPES pH 7.2 + 20 mM glucose, triplicates, result in words. As to the method:
as §1

In test [4] the test system is polymyxin-sensitive E. coli ATCC 25922. Put plainly: microbe, parasite or virus in culture. The class given is cell-based. As to the method:
(§2) Selected Gram-negative bacterial strains were taken from glycerol stocks and grown overnight on blood agar. A single colony was inoculated in TSB broth at 37 °C until an optical density of 0.5 at 600 nm (OD600) was reached. The bacterial suspension was diluted in freshly prepared CAMHB to 10^6 CFU/mL. Compounds were diluted along the plate, using 25 μL of CAMHB for each dilution. Antibiotic concentrations were prepared separately in a multiwell reservoir, including a control without antibiotic. Of each antibiotic stock, 25 μL was added to three columns to obtain triplicates for every condition. To each 50 μL containing well was then added 50 μL of the 10^6 CFU/mL bacterial suspension, and the plates were sealed with breathable seals. After incubation for 18 h at 37 °C while shaking, the seals were removed and the density of the bacterial suspensions was measured at 600 nm (OD600) using a Tecan Spark plate reader. The OD600 values were transformed to a 2D gradient with the negative control as the minimum and the positive control as the maximum. The FICI was calculated using the following equation: [drawing 1] with MSCant and MSCcomp indicating the optimal synergistic concentration of antibiotic and compound and MICant and MICcomp, the corresponding MICs of the individual compounds. An FICI ≤ 0.5 indicates synergy.[48]

Test [5] relates to polymyxin-resistant (mcr-1 positive) E. coli. Put plainly: microbe, parasite or virus in culture. It counts as cell-based. As to the method: as §2
The subject of test [6] is P. aeruginosa ATCC 10145. It counts as cell-based. The following applies: P. aeruginosa ATCC 10145; CLSI microbroth dilution, CAMHB, 18 h, 37 °C, triplicate. As to the method: (§3) MICs of compounds were determined following CLSI guidelines using the microbroth dilution method in polypropylene plates. Selected Gram-negative bacterial strains (see Table S2 for strain sources) were taken from glycerol stocks and grown overnight on blood agar. Individual colonies were selected and grown in Tryptic Soy Broth (TSB) to an OD600 of 0.5. Compounds were diluted in Mueller Hinton Broth (MHB) supplemented with Mg^2+ and Ca^2+ at final concentrations of 12 and 20 mg/L, respectively (CAMHB). 50 μL was used for each well, and compounds were assessed in triplicates. Bacterial culture was diluted in CAMHB to 10^6 CFU/mL, yielding 5 × 10^5 CFU/mL upon addition of 50 μL of culture to 50 μL of compound solution. Positive and negative (sterility) controls were present on each plate. Plates were sealed with a semipermeable membrane and incubated for 22 h (A. baumannii) or 18 h (other strains) under shaking at 37 °C.
For orientation: In broth dilution the organism is exposed to a series of concentrations in liquid medium.

Test [7] concerns E. coli BW25113. It counts as cell-based. The following applies: E. coli BW25113; CLSI microbroth dilution, CAMHB, 18 h, 37 °C, triplicate. As to the method: as §3
Test [8] has as its system E. coli mcr-1. It counts as cell-based. Particulars: CLSI microbroth dilution, CAMHB, 18 h, 37 °C, triplicate. The protocol:
as §3

The test system of test [9] is E. coli ATCC 25922. The class given is cell-based. The following applies: E. coli ATCC 25922; CLSI microbroth dilution, CAMHB, 18 h, 37 °C, triplicate. As to the method: as §3
Test [10] relates to P. aeruginosa ATCC 27853. The class given is cell-based. The following applies: P. aeruginosa ATCC 27853; CLSI microbroth dilution, CAMHB, 18 h, 37 °C, triplicate. The protocol: as §3
Test [11] has as its system E. coli JW3596 (ΔwaaC). The class given is cell-based. The following applies: truncated LPS, CLSI microbroth dilution, CAMHB, 18 h, 37 °C, triplicate. The protocol: as §3
Test [12] relates to A. baumannii ATCC 19606. The class given is cell-based. The following applies: A. baumannii ATCC 19606; CLSI microbroth dilution, CAMHB, 22 h, 37 °C, triplicate. As to the method:
as §3

For test [13], the system named is E. coli JW3594 (ΔwaaD). The class given is cell-based. The following applies: truncated LPS, CLSI microbroth dilution, CAMHB, 18 h, 37 °C, triplicate. As to the method:
as §3

Test [14] has as its system P. aeruginosa 2018-007. The class given is cell-based. The following applies: P. aeruginosa 2018-007; CLSI microbroth dilution, CAMHB, 18 h, 37 °C, triplicate. The protocol: as §3
Test [15] relates to P. aeruginosa NRZ03961. It counts as cell-based. The following applies: P. aeruginosa NRZ03961; CLSI microbroth dilution, CAMHB, 18 h, 37 °C, triplicate. As to the method: as §3
Test [16] concerns K. pneumoniae ATCC 13883. The class given is cell-based. The following applies: K. pneumoniae ATCC 13883; CLSI microbroth dilution, CAMHB, 18 h, 37 °C, triplicate. As to the method: as §3

As usually defined, the Kd is the concentration at which binding is half-saturated. Take `CC(C)C[C@H]1NC(=O)[C@H](Cc2ccccc2)NC(=O)[C@@H](CCN)NC(=O)[C@H](NC(=O)[C@@H](CCN)NC(=O)[C@H](N)[C@H](C)O)CCNC(=O)[C@@H]([C@H](C)O)NC(=O)[C@@H](CCN)NC(=O)[C@@H](CCN)NC1=O` [ent-PMBN] (H-[dT][dDab][dDab][dDab]F[dL][dDab][dDab][dT]; lactam 3-C): in test [1], the “ΔΔH, maximum enthalpy observed after subtraction of dilution control” value is -4.91 ± 0.03 kcal/mol; the “ΔG, fitted parameter for single site binding” value is listed as -7.69 ± 0.06 kcal/mol; the “ΔH, fitted parameter for single site binding” value is -5.2 ± 0.03 kcal/mol; the Kd is 3.9 ± 0.4 µM. Moreover, in [2], the “OM disruption (NPN uptake)” value is recorded as “higher degree of OM perturbation”. The “OM disruption (NPN uptake)” value in test [3] is listed as “weak OM disruption”. The MIC alone in test [4] (ATCC 25922, 18 h) is recorded as ≥ 256 µg/mL.
Consider `CC(C)C[C@@H]1NC(=O)[C@@H](Cc2ccccc2)NC(=O)[C@H](CCN)NC(=O)[C@@H](NC(=O)[C@H](CCN)NC(=O)[C@@H](N)[C@@H](C)O)CCNC(=O)[C@H]([C@@H](C)O)NC(=O)[C@H](CCN)NC(=O)[C@H](CCN)NC1=O` [PMBN, polymyxin B nonapeptide, reference compound] (H-T[Dab][Dab][Dab][dF]L[Dab][Dab]T; lactam 3-C (inferred); N-terminus assumed), for which, in test [1], the “ΔΔH, maximum enthalpy observed after subtraction of dilution control” value is listed as -7.20 ± 0.19 kcal/mol; the “ΔG, fitted parameter for single site binding” value was -7.24 ± 0.03 kcal/mol; the “ΔH, fitted parameter for single site binding” value is given as -8.4 ± 0.25 kcal/mol; the Kd was found to be 8 ± 0.4 µM. Besides, the “OM disruption (NPN uptake)” value in test [2] is on record as “potent OM disruption”. For the same molecule, the “OM disruption (NPN uptake)” value in test [3] is on record as “potent OM disruption”. Also, the MIC alone in test [4] (ATCC 25922, 18 h) is ≥ 256 µg/mL. In test [5] (E. coli mcr-1, combination with rifampicin, checkerboard, CAMHB, 18 h, 37 °C, OD600, FICI ≤ 0.5 indicates synergy), the FICI is on record as ≤ 0.14.
On to `CO[C@H]1/C=C/O[C@@]2(C)Oc3c(C)c(O)c4c(O)c(c(/C=N/N5CCN(C)CC5)c(O)c4c3C2=O)NC(=O)/C(C)=C\C=C\[C@H](C)[C@H](O)[C@@H](C)[C@@H](O)[C@@H](C)[C@H](OC(C)=O)[C@@H]1C` [Rifampicin, rifampicin], for which, in [4] (E. coli ATCC 25922, checkerboard, substance alone), the MIC alone turned out to be 8 µg/mL. For the same molecule, the “MIC in combination (rifampicin)” value was determined as 0.1 µg/mL in [4] (E. coli ATCC 25922, rifampicin in combination with PMBN (2 µg/mL)); 0.5 µg/mL in test [4] (E. coli ATCC 25922, rifampicin in combination with PmxB4 (1 µg/mL)); 2 µg/mL in [4] (E. coli ATCC 25922, rifampicin in combination with ent-PMBN (32 µg/mL)); 0.1 µg/mL in test [4] (E. coli ATCC 25922, rifampicin in combination with ent-PmxB4 (8 µg/mL)); 1 µg/mL in test [5] (E. coli mcr-1, rifampicin in combination with PMBN (4 µg/mL)); 0.3 µg/mL in [5] (E. coli mcr-1, rifampicin in combination with PmxB4 (1 µg/mL)). Moreover, the “MIC in combination (rifampicin)” value was 2 µg/mL in [5] (E. coli mcr-1, rifampicin in combination with ent-PMBN (32 µg/mL)) and 1 µg/mL in test [5] (E. coli mcr-1, rifampicin in combination with ent-PmxB4 (8 µg/mL)). Further, the MIC in test [4] (Escherichia coli, ATCC25922, E. coli ATCC 25922, checkerboard, substance alone) was 8 µg/mL; in test [5] (Escherichia coli, read-out: MIC alone), 8 µg/mL.
As to “Polymyxin B sulfate [PmxB (commercial), reference compound]”, the MIC is 1 µg/mL in [6]; 1 µg/mL in [7]; 4 µg/mL in test [8]; 1 µg/mL in test [9]; 1 µg/mL in test [10]; 0.06 µg/mL in [11]. Also, the MIC in [12] was found to be 0.25 µg/mL; in [13], 0.06 µg/mL; in test [14], 2 µg/mL; in test [15] it was 1 µg/mL; in [16], 0.25 µg/mL.
